Data on eight compounds can be found in ChEMBL document CHEMBL1201862, “PubChem BioAssay data set” (2004).

Test [1] can be described thus: human cervical cancer cell viability loss – 24 h, plate reader, dry powder, cytotoxicity control, dose response (AID 686928). The class given is functional, cell-based. As to conditions: HeLa.
A short description of test [2]: T. cruzi growth inhibition in host cells, dose response, cell-based, plate reader, dry powder, set 2 (AID 652275). It counts as functional.
A short description of test [3]: rescue of ΔF508 CFTR function, airway epithelium – human bronchial epithelial cells, plate reader, cherry-pick, two tests, dose response (AID 743267). The class given is functional, cell-based.
Test [4] is described as follows: Late stage assay provider results from the probe development effort to identify selective inhibitors of heat shock protein 90 (HSP90): Absorbance-based cell proliferation assay in MCF7 cells. It counts as functional.
A short description of test [5]: Late stage assay provider results from the probe development effort to identify selective inhibitors of heat shock protein 90 (HSP90): Absorbance-based cell proliferation assay in SKBR3 cells. The class given is functional. As to conditions: SK-BR-3.
Test [6] can be described thus: A2780 cell killing – plate reader, dry powder samples, cytotoxicity control, dose response (AID 743046). The class given is functional, cell-based.
Test [7] is described as follows: OVCAR8 cell viability loss – plate reader, dry powder samples, PAX8 project, dose response (AID 743197). As to conditions: OVCAR-8. The class given is functional, cell-based.
For test [8], the target named is Potassium channel subfamily K member 9 (Homo sapiens, UniProt Q9NPC2). Kind of test: KCNK9 flux blockade, concentration-response – cell-based, FluxOR thallium flux, selectivity assay for TASK1 inhibitor project, SAR follow-up (AID 652211).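 Note: potency is for inhibitors of the channel.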 It counts as functional.
Potassium channel subfamily K member 9, sequence (Q9NPC2 whole entry): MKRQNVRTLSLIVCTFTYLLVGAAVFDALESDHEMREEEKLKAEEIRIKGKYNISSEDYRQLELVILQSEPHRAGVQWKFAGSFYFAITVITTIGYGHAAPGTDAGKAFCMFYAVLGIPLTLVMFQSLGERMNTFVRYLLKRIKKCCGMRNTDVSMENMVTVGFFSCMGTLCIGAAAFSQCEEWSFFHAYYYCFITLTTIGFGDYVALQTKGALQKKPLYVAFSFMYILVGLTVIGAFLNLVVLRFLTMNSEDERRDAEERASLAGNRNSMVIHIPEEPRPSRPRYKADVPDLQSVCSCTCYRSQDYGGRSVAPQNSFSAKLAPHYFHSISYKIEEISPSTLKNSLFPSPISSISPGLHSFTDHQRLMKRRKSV
Test [9] concerns the target Potassium channel subfamily K member 3 (Homo sapiens, UniProt O14649). Kind of test: inhibition of human KCNK3 channel flux – CHO cells, FluxOR thallium flux, SAR follow-up (AID 652212). The class given is functional.
Test [10] has as its target T1, Disintegrin and metalloproteinase domain-containing protein 17 (Homo sapiens, UniProt P78536). In words: inhibition of ADAM17 substrate cleavage – biochemical, quenched FRET substrate, counter-screen for ADAM10 exosite inhibitor project, dose response (AID 743253). (In general: A counterscreen serves to expose hits that act by an unwanted route or on another target.)

Test [11] concerns the target T2, Kappa-type opioid receptor (Homo sapiens, UniProt P41145). The class given is functional.
The target of test [12] is T2, Kappa-type opioid receptor. The class given is functional. This is another data set of the same source.
In another test the target is Beta-galactosidase (Escherichia coli, UniProt Q8VNN2). The class given is functional.
Beta-galactosidase, sequence (Q8VNN2 whole entry): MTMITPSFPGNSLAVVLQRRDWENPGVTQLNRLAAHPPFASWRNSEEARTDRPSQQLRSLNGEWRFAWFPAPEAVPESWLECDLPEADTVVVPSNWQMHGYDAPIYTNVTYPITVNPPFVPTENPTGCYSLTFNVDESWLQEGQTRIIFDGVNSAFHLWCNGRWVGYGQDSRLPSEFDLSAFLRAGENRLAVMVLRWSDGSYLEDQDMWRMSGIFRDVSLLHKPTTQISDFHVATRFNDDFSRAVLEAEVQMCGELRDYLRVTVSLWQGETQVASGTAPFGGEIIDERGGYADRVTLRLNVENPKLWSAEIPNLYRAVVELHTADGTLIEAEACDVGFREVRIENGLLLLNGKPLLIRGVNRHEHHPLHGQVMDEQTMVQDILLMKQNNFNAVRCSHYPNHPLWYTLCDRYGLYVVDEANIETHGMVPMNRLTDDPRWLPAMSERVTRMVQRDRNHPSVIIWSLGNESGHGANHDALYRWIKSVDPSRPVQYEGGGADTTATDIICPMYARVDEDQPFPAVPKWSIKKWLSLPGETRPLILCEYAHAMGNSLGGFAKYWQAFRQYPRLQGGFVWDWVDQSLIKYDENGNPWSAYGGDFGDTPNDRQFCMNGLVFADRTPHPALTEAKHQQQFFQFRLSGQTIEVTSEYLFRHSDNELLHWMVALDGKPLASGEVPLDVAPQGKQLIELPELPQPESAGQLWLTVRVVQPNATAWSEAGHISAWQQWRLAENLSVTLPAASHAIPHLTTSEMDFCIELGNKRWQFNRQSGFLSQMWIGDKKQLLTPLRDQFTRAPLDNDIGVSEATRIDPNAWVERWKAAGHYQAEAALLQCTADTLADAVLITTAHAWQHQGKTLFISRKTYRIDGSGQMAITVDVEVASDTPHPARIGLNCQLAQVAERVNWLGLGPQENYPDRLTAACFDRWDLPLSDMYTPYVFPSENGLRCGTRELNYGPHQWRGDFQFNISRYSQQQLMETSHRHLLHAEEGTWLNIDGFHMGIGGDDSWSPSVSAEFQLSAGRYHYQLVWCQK
Test [13] can be described thus: potency of ADAM10 substrate cleavage blockers – biochemical, QFRET, dose response (AID 743254).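 Note: ADAM10 enzyme with the DM2 quenched FRET peptide as substrate; EDANS fluorescence gain as the protease cuts the substrate; inhibitor potency against ADAM10 proteolytic activity.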
The target in test [14] is T1, Disintegrin and metalloproteinase domain-containing protein 17. In words: exosite inhibitors of ADAM17, dose response, biochemical (AID 743260).
The next test concerns HEK293. In words: viability loss in HEK293T cells – cell-based, ATP luminescence, cherry-pick samples, cytotoxicity control, dose response (AID 687005).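 Note: cells exposed to compound for 48 hours.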 It counts as functional. Conditions: Homo sapiens.
The nature of test [15]: HEK293 Cytotoxicity Assay Measured in Cell-Based System Using Plate Reader - 7071-01_Inhibitor_Dose_CherryPick_Activity_Set2. It counts as functional.

Active and inactive are the calls of the source.

T1 sequence (P78536 whole entry, the tested form may be a part): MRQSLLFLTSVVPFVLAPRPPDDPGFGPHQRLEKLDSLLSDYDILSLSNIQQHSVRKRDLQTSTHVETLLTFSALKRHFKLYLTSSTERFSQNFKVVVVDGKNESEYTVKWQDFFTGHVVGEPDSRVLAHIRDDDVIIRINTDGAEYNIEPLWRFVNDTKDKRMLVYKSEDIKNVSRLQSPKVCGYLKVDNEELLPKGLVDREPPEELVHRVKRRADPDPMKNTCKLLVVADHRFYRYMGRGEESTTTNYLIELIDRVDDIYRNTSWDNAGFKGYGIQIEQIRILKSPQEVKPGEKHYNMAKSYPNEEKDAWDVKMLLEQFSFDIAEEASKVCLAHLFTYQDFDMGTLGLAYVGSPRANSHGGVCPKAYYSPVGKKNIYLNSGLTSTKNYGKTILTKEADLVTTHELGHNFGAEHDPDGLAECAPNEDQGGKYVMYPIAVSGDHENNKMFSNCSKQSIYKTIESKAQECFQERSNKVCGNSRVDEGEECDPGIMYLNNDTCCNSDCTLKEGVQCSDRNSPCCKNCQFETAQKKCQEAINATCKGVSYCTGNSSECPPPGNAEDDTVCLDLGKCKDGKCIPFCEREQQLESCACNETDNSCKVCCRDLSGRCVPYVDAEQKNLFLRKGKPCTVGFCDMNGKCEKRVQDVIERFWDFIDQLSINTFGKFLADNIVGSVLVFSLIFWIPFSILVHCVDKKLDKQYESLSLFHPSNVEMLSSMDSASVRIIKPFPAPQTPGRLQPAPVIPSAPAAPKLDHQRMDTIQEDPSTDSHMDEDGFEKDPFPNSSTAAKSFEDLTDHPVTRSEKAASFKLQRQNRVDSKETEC
T2 sequence (P41145 whole entry): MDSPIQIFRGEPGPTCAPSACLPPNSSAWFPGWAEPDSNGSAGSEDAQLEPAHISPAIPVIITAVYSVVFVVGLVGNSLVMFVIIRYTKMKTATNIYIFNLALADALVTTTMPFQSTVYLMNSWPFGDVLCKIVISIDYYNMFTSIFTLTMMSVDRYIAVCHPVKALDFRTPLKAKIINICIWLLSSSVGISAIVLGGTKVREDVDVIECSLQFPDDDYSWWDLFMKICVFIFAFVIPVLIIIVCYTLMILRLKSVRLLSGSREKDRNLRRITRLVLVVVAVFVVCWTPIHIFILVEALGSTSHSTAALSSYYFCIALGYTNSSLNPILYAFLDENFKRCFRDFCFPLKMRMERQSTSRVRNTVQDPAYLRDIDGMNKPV
Potassium channel subfamily K member 3, sequence (O14649 whole entry, the tested form may be a part): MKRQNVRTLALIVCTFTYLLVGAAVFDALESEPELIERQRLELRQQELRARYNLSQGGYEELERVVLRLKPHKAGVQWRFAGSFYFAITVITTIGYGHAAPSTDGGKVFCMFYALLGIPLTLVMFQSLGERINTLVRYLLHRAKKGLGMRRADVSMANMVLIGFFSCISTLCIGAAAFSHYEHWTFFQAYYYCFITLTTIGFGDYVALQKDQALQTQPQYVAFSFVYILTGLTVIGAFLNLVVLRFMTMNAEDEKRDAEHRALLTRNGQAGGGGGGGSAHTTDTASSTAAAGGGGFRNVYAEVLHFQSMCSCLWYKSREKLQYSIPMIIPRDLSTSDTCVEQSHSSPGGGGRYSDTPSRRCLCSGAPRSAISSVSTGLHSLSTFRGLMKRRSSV

The term AC50 denotes the concentration giving half of the maximal activity seen. `Cc1cc2nc3c(cc2cc1F)c(NC(=O)c1ccco1)nn3C`: the AC50 in [1] was > 200 µM (inactive).
For `CC(C)N1C[C@@H](CN(C)CCc2ccc(Cl)cc2)Oc2c(NC(=O)c3ccncc3)cccc2C1=O`, the half-maximal activity concentration (AC50) in test [2] is 0.000332 µM (active).
On to `COc1cccc(-c2cc3nc(-c4ccccc4)cc(O)n3n2)c1`, for which the AC50 in [3] is 2.35 µM (active).
The IC50 is the concentration that inhibits the measured activity by half. Consider `COc1ccc(CCN/C=C2/C=C(Br)C(=O)OC2=O)cc1`, for which the IC50 in test [4] was 1.8 µM (active); in test [5], 5.7 µM (active).
On to `C[C@H]1CN([C@@H](C)CO)C(=O)c2cccc(NC(=O)Nc3ccc(C(F)(F)F)cc3)c2O[C@H]1CN(C)C(=O)NC1CCCCC1`, for which the half-maximal activity concentration (AC50) in test [6] was 11.9 µM (active); in test [7] it was > 70 µM (inactive).
`CCOc1ccccc1NC(=O)c1cccc(NC(=O)c2ccccc2OC(F)(F)F)c1`: the IC50 in test [8] is 0.8 µM (active); in test [9] it was 0.114 µM (active).
A word on the EC50: it is the midpoint of the concentration-response curve. Take `COCC/N=c1\scc(-c2cc(OC)ccc2OC)n1/N=C/c1c[nH]c2ccccc12`: the IC50 in test [10] is > 69.5 µM (inactive); in [11], 9.65 µM (active); in test [12], 3.86 µM; in test [13], > 69.5 µM (inactive); in test [14] it was > 69.5 µM (inactive). Besides, the EC50 at Beta-galactosidase was > 31.5 µM (inactive).
As for `C[C@H]1CN([C@@H](C)CO)S(=O)(=O)c2ccc(Br)cc2O[C@H]1CN(C)S(=O)(=O)c1ccccc1F`, the AC50 (with HEK293; in test [15]) was 37.9 µM (active) each time.
